Measurements as given in US9814778B2, “Ionically crosslinked polyelectrolytes as underwater adhesives as controlled release vehicles” (The University of Toledo, priority 2014, dated 2017).

Key:
[1] = Dye loading efficiency and loading capacity of dye-loaded coacervates (UV-Vis of supernatant); type: physicochemical
Experimental: All solutions were adjusted to pH 7 using HCl and NaOH prior to mixing. The mixtures were than centrifuged at 15,000 rpm for 90 min using an Ependorf centrifuge. […] The loading capacity (LC) and loading efficiency (LE) for each loading procedure was calculated by subtracting the mass of dye in the supernatant from the total mass of dye originally in the solutions in the microcentrifuge tubes. The total dye mass in the supernatant was determined by measuring the supernatant mass in each tube and determining the supernatant dye concentration using UV-Vis spectroscopy (Varian Cary 50 Spectrophotometer) and the absorbance at a wavelength of 614 nm (ε=9.57×103 m2/mol) and 555 nm (ε=9.82×103 m2/mol) for Fast Green FCF and Rhodamine B, respectively. The LC and LE were then calculated using the following equations: […]
Similarly, the LEs of the dye-loaded complexes was measured at a constant initial dye concentration of 1 mg/ml while the PAH concentration was varied. The dye-loaded complex samples were prepared as outlined above; however, the PAH concentration was varied (between 2.5 and 10.0 wt %). […] The LC- and LE-values were then determined using Equations 1 and 2.

[2] = Dye release from dye-loaded complexes in 1×PBS at 37° C. (UV-Vis); type: physicochemical; settings: PAH/PPi and PAH/TPP complexes, 7-8 mm plugs, time span of up to 164 days
Experimental: The supernatant was removed from the microcentrifuge tube, and the inside of the tube was rinsed with DI water to ensure all excess supernatant was removed. The release medium, 1 ml of 1×PBS, was then added to the microcentrifuge tube. During the release evaluations, the contents of the microcentrifuge tube was mixed at 400 rpm in an Ependorf Thermomixer at 37° C. The old PBS solution was replaced with fresh PBS daily. UV-Vis spectroscopy was used to determine the amount of dye released within this one day interval. The concentration of dye in the PBS was determined using the absorbance of the solution as described above. These release studies were run until the amount of dye released in one day became so low that a discernable peak in the UV-Vis spectrum could not be obtained. The weight of the adhesives was also tracked during the release process using the procedure described above. Each release experiment was repeated thrice to ensure reproducibility. An additional release study was run (using the same complex/dye compositions) with tap water at room temperature as the release medium.
The released dye concentration in the PBS was determined using UV-Vis spectroscopy, with the PBS being replaced daily. This procedure was repeated until discernable UV-Vis peaks could no longer be obtained from the PBS samples in order to obtain release profiles. […]

PAH/PPi complexes = assay: Isothermal titration calorimetry of dyes into PAH/PPi dispersion; type: binding; settings: pH 7
Experimental: (§1) The Fast Green FCF and Rhodamine B solutions were then prepared at concentrations of 0.43 and 0.80 wt %, respectively. All solutions were adjusted to pH 7 using HCl and NaOH. ITC experiments were run by placing the PAH/PPi or PAH/TPP complex solutions in the sample cell, and loading the dye solution into the injector. The dye solutions were then titrated using twenty 15-μL injections, with 20 min equilibration intervals between each injection. The contents of the sample cell were stirred at 307 rpm with the impeller-shaped injector tip. The instrument software was used to integrate the raw ITC data obtained from these titrations. The heat of dilution, which was obtained by titrating the dye solutions into DI water, was then subtracted from the integrated data to obtain the final thermograms. To ensure reproducibility, each ITC test was repeated twice.
(§2) Fast Green FCF and Rhodamine B are anionic and cationic, respectively. ITC was used to probe the binding of these dye molecules to the ionically crosslinked networks. In ITC the heat required to maintain a sample cell (which contains a binding substrate solution) at a constant temperature upon the addition of a binding ligand solution is measured, with endothermic or exothermic peaks in the ITC raw data indicating binding. […]

PAH/TPP complexes = assay: Isothermal titration calorimetry of dyes into PAH/TPP dispersion; type: binding; settings: pH 7
Experimental: as §1, §2

[3] = in solution; cited from earlier work
[4] = PAH/PPi, initial dye 0.5 mg/ml, 10.0 wt % PAH
[5] = PAH/PPi, initial dye 1 mg/ml, 5% PAH
[6] = PAH/PPi, initial dye 1 mg/ml, 10% PAH
[7] = PAH/PPi, initial dye 1 mg/ml, 10.0 wt % PAH
[8] = PAH/PPi, initial dye 4 mg/ml, 10.0 wt % PAH
[9] = PAH/TPP, initial dye 0.5 mg/ml, 10.0 wt % PAH
[10] = PAH/TPP, initial dye 1 mg/ml, 5% PAH
[11] = PAH/TPP, initial dye 1 mg/ml, 10% PAH
[12] = PAH/TPP, initial dye 1 mg/ml, 10.0 wt % PAH
[13] = PAH/TPP, initial dye 4 mg/ml, 10.0 wt % PAH

Row | Compound | Loading Capacity [1, 4] [mg/mL] | Loading Efficiency [1, 4] [%] | Loading Efficiency [1, 5] [%] | Loading Efficiency [1, 6] [%] | Loading Capacity [1, 7] [mg/mL] | Loading Capacity [1, 8] [mg/mL] | Loading Efficiency [1, 8] [%] | Loading Capacity [1, 9] [mg/mL] | Loading Efficiency [1, 9] [%] | Loading Efficiency [1, 10] [%] | Loading Efficiency [1, 11] [%] | Loading Capacity [1, 12] [mg/mL] | Loading Capacity [1, 13] [mg/mL] | Loading Efficiency [1, 13] [%] | binding to the ionically crosslinked network (ITC) (PAH/PPi complexes) | binding to the ionically crosslinked network (ITC) (PAH/TPP complexes) | also measured
1 | CCN(Cc1cccc(S(=O)(=O)[O-])c1)c1ccc(C(=C2C=CC(=[N+](CC)Cc3cccc(S(=O)(=O)[O-])c3)C=C2)c2ccc(O)cc2S(=O)(=O)[O-])cc1.[Na+].[Na+] [Fast Green, Fast Green FCF] | 3.16 ± 0.17 | 56.48 ± 3.04 | 61.69 ± 1.13 | 63.03 ± 1.37 | 7.04 ± 0.15 | 30.62 ± 0.93 | 68.54 ± 2.09 | 3.31 ± 0.07 | 64.01 ± 1.45 | 72.40 ± 0.53 | 72.94 ± 3.09 | 7.54 ± 0.32 | 30.89 ± 1.43 | 74.74 ± 3.47 | strong cooperative binding | strong cooperative binding | fraction of payload released [2]: < 5%
2 | CCN(CC)c1ccc2c(-c3ccccc3C(=O)O)c3ccc(=[N+](CC)CC)cc-3oc2c1.[Cl-] [Rhodamine B] | 0.55 ± 0.16 | 9.83 ± 2.79 | 3.76 ± 0.45 | 6.38 ± 0.79 | 0.71 ± 0.09 | 3.46 ± 1.24 | 7.76 ± 2.77 | 0.45 ± 0.11 | 8.71 ± 2.10 | 3.78 ± 0.32 | 6.27 ± 1.04 | 0.65 ± 0.11 | 2.74 ± 0.58 | 6.62 ± 1.41 | binds only very weakly and non-cooperatively | binds only very weakly and non-cooperatively | Loading Efficiency ([1]; PAH/PPi, initial dye 1 mg/ml, 2.5% PAH): 1.49 ± 0.30%; Loading Efficiency ([1]; PAH/TPP, initial dye 1 mg/ml, 2.5% PAH): 1.59 ± 0.65%
3 | tripolyphosphate [TPP] | – | – | – | – | – | – | – | – | – | – | – | – | – | – | – | – | pKa,3 [3]: 2.8; pKa,4 [3]: 6.5; pKa,5 [3]: 9.2
